Reference: EP0209430A2, “L-di or tripeptides possessing a biological activity for use in human and veterinary medicines, process for their obtention and medicines containing them” (INSTITUT DE RECHERCHES CHIMIQUES ET BIOLOGIQUES APPLIQUEES …, priority 1985, dated 1987)
≈ marks a conversion by molar mass, not a printed value.

How the values were obtained:
Assay in all cases: MIC (C.M.I.) in agar medium
Format in all cases: cell-based
[1] = system: S. aureus; conditions: Staphylococcus aureus
Description: (§1) Par exemple, nous décrivons les C.M.I. (concentrations minimales inhibitrices) en µg/ml, obtenues en milieu gélosé pour un inoculum de 10^4 à 10^5 bactéries par millilitre, du composé B 1067.

[2] = system: Klebsiella p.; conditions: Klebsiella p. La 433, inoculum 10^4 à 10^5 bacteria per ml
Description: as §1

[3] = system: Salmonella E.; conditions: Salmonella E. CNCM 57.29, inoculum 10^4 à 10^5 bacteria per ml
Description: as §1

[4] = system: S. faecalis; conditions: Enterococcus faecalis, ATCC14508, S. faecalis ATCC 14508, inoculum 10^4 à 10^5 bacteria per ml
Description: as §1

[5] = system: Serratia; conditions: Serratia 22.579, inoculum 10^4 à 10^5 bacteria per ml
Description: as §1

[6] = system: E. Coli
Description: as §1

C[C@H](N)C(=O)N[C@@H](C)P(=O)(O)O [B 1067, Selde l'amino-2-(hydroxyméthyl)-2-propanediol-1,3 avec l'acide L-Alanyl-L-(amino-1)-éthylphosphonique] was tested, and the MIC ([1]; ATCC63, S. aureus ATCC 63.58 P, inoculum 10^4 à 10^5 bacteria per ml) was 32 µg/mL (≈ 163 µM), the MIC ([1]; ATCC29213, S. aureus ATCC 29213, inoculum 10^4 à 10^5 bacteria per ml) was 8 µg/mL (≈ 40.8 µM) and the MIC ([1]; S. aureus CNCM 52.149, inoculum 10^4 à 10^5 bacteria per ml) was 32 µg/mL (≈ 163 µM). For the same compound, the MIC [2] was 16 µg/mL (≈ 81.6 µM), the MIC [3] was 1 µg/mL (≈ 5.1 µM) and the MIC [4] was 32 µg/mL (≈ 163 µM). The MIC [5] was 32 to 64 µg/mL (≈ 163 to 326 µM), the C.M.I. ([6]; E. Coli CNCM 53.126, inoculum 10^4 à 10^5 bacteria per ml) was 0,25 µg/ml and the MIC ([6]; Escherichia coli, E. Coli CNCM 54.8, inoculum 10^4 à 10^5 bacteria per ml) was 0.25 µg/mL (≈ 1.27 µM).
